In patent US3981999A, “Fish disease treatment” (Dainippon Pharmaceutical Co., Ltd., priority 1973, dated 1976):
Values after ≈ are worked out from the molar mass of the structure shown.

Tests used:
[1] = tested on: Aeromonas liquefaciens Y-62; assay: MIC by broth serial dilution; assay type: cell-based; conditions: Aeromonas hydrophila, Y62; bouillon pH 7.2, 25°C, 48 hours; read-out: MIC
Protocol: (§1) The MIC (minimum inhibitory concentration) of a test compound was determined by the serial dilution method on various pathogenic microorganisms incubated under the following experimental conditions. The lowest concentration at which the visible growth of the organism was inhibited was considered as MIC. […]
(§2) the broth-dilution method bouillon, pH 7.2, except for Vibrio (3% NaCl-bouillon, pH 7.2), Pasteurella (2% NaCl-Brain Heart Infusion, pH 7.3 and Chondrococcus (TY medium, pH 7.3) 1 drop of a bacterial suspension per test tube (100 - 1000 minimal growing units in the medium) 25°C, except for Pseud. anguilliseptica (20°C)
(§3) 48 hours, except for Pseudo. anguilliseptica ([…])

[2] = tested on: Aeromonas salmonicida Hara-1; assay: MIC by broth serial dilution; assay type: cell-based; conditions: HARA1, bouillon pH 7.2, 25°C, 48 hours, read-out: MIC
Protocol: as §1, §2, §3

[3] = tested on: Aeromonas salmonicida Hara-2; assay: MIC by broth serial dilution; assay type: cell-based; conditions: HARA2, bouillon pH 7.2, 25°C, 48 hours, read-out: MIC
Protocol: as §1, §2, §3

[4] = tested on: Aeromonas salmonicida Kawazu; assay: MIC by broth serial dilution; assay type: cell-based; conditions: bouillon pH 7.2, 25°C, 48 hours, read-out: MIC
Protocol: as §1, §2, §3

[5] = tested on: Aeromonas salmonicida Kusuda; assay: MIC by broth serial dilution; assay type: cell-based; conditions: bouillon pH 7.2, 25°C, 48 hours, read-out: MIC
Protocol: as §1, §2, §3

[6] = tested on: Chondrococcus sp K-1; assay: MIC by broth serial dilution; assay type: cell-based; conditions: TY medium pH 7.3, 25°C, 48 hours; read-out: MIC
Protocol: as §1, §2, §3

[7] = tested on: Chondrococcus sp K-2; assay: MIC by broth serial dilution; assay type: cell-based; conditions: TY medium pH 7.3, 25°C, 48 hours; read-out: MIC
Protocol: as §1, §2, §3

[8] = tested on: Pasteurella piscicida Al-3; assay: MIC by broth serial dilution; assay type: cell-based; conditions: Photobacterium damselae, AL3; 2% NaCl-Brain Heart Infusion pH 7.3, 25°C, 48 hours; read-out: MIC
Protocol: as §1, §2, §3

[9] = tested on: Pasteurella piscicida K-1; assay: MIC by broth serial dilution; assay type: cell-based; conditions: Photobacterium damselae, K1; 2% NaCl-Brain Heart Infusion pH 7.3, 25°C, 48 hours; read-out: MIC
Protocol: as §1, §2, §3

[10] = tested on: Pseudomonas anguilliseptica S-1; assay: MIC by broth serial dilution; assay type: cell-based; conditions: S1, bouillon pH 7.2, 20°C, 7 hours, read-out: MIC
Protocol: as §1, §2, §3

[11] = tested on: Pseudomonas anguilliseptica T-2; assay: MIC by broth serial dilution; assay type: cell-based; conditions: T2, bouillon pH 7.2, 20°C, 7 hours, read-out: MIC
Protocol: as §1, §2, §3

[12] = tested on: Vibrio anguillarum A-8; assay: MIC by broth serial dilution; assay type: cell-based; conditions: A8, 3% NaCl-bouillon pH 7.2, 25°C, 48 hours, read-out: MIC
Protocol: as §1, §2, §3

[13] = tested on: Vibrio anguillarum K-3; assay: MIC by broth serial dilution; assay type: cell-based; conditions: K3, 3% NaCl-bouillon pH 7.2, 25°C, 48 hours, read-out: MIC
Protocol: as §1, §2, §3

[14] = tested on: Vibrio anguillarum Km-30; assay: MIC by broth serial dilution; assay type: cell-based; conditions: KM30, 3% NaCl-bouillon pH 7.2, 25°C, 48 hours, read-out: MIC
Protocol: as §1, §2, §3

[15] = tested on: goldfish; assay: Oral toxicity in goldfish; assay type: in vivo; conditions: 10% in diet (PA 800, AT-1493 955, AT-1557 935, AT-1475 923 mg/kg)
Protocol: A diet containing 10% of each of the test compounds was given orally to groups each consisting of 5 goldfish each weighing 6 to 10 g, and observation was made for the following 7 days. The temperature of the water was maintained at 28°C.

[16] = tested on: eels; assay: Oral toxicity in eels; assay type: in vivo, eels (Anguilla Japonica); conditions: oral 2000 mg/kg, 7 days, 10 eels per group, 27° to 27.5°C
Protocol: A suspension of PA in 0.2% carboxymethylcellulose was orally given to groups each consisting of 10 eels (Anguilla Japonica, about 160 g) and observation was made for the following 7 days. The temperature of the water was kept at 27° to 27.5°C.

[17] = Bathing toxicity in goldfish; assay type: in vivo; conditions: fresh water; goldfish, bathing for 5 days, 27° to 30°C; read-out: LC50 (50% lethal concentration)
Protocol: (§4) Groups of goldfish each weighing 7 to 8 g (each group consisting of 6 goldfish) were placed in 6 liters of fresh water (27° to 30°C.) containing PA in varying concentrations with aeration for 5 days. During this time, observation was made.

[18] = tested on: goldfish; assay: Bathing toxicity in goldfish; assay type: in vivo; conditions: for Mortality: 5 days; for Number of the survival after 1 day / Number of the survival after 2 days / Number of the survival after 3 days / Number of the survival after 4 days / Number of the survival after 5 days: day 0: 6 fish
Protocol: as §4

[19] = tested on: Aeromonas liquefaciens Y-62; assay: Oral administration to eels starting the day before Aeromonas infection; assay type: in vivo, eels (Anguilla Japonica); conditions: oral 1.56 mg/kg/day for 2 days starting the day before infection; seventh day
Protocol: Groups of eels (Anguilla Japonica, average weight 100 g) (each group consisting of 50 fish) were infected intramuscularly with Aeromonas liquefaciens Y-62 (10^9 germs/fish). For 2 days starting at the day before infection, a suspension consisting of a diet containing PA was orally administered to the eels using a catheter at a dose of 1.56 mg/kg/day. On the seventh day after the infection, the eels were observed.
During the experimental period, the temperature of the water was maintained at 25° to 26°C.

[20] = tested on: Aeromonas liquefaciens Y-62; assay: Oral administration to eels after Aeromonas infection; assay type: in vivo, eels (Anguilla Japonica); conditions: oral 3.1 mg/kg/day at 4 hours after infection and next day; seventh day
Protocol: Groups of eels (Anguilla Japonica, average weight 100 g) (each group consisting of 50 eels) were infected intramuscularly with Aeromonas liquefaciens Y-62 (10^9 germs/fish). A suspension consisting of a diet containing PA was orally administered to the eels at 4 hours after the infection and on the next day, using a catheter, at a dose of 3.1 mg/kg/day.
The temperature of the water was kept at 25° to 26°C. during the entire experimental period.

Structure (SMILES): CCn1cc(C(=O)O)c(=O)c2cnc(N3CCCC3)nc21 [PA, 5,8-dihydro-2-pyrrolidino-8-ethyl-5-oxopyrido[2,3-d]pyrimidine-6-carboxylic acid]
- MIC [1]: 1 µg/mL (≈ 3.47 µM)
- MIC [2]: 0.1 µg/mL (≈ 0.347 µM)
- MIC [3]: 1 µg/mL (≈ 3.47 µM)
- MIC [4]: 0.1 µg/mL (≈ 0.347 µM)
- MIC [5]: 0.1 µg/mL (≈ 0.347 µM)
- MIC [6]: 0.3 µg/mL (≈ 1.04 µM)
- MIC [7]: 0.3 µg/mL (≈ 1.04 µM)
- MIC [8]: 0.3 µg/mL (≈ 1.04 µM)
- MIC [9]: 1 µg/mL (≈ 3.47 µM)
- MIC [10]: 0.1 µg/mL (≈ 0.347 µM)
- MIC [11]: 0.1 µg/mL (≈ 0.347 µM)
- MIC [12]: 3 µg/mL (≈ 10.4 µM)
- MIC [13]: 1 µg/mL (≈ 3.47 µM)
- MIC [14]: 3 µg/mL (≈ 10.4 µM)
- Mortality ([15]; 7 days): 0%
- Number of the survival after 1 day from administration ([15]; day 0: 5 fish): 5
- Number of the survival after 2 days from administration ([15]; day 0: 5 fish): 5
- Number of the survival after 3 days from administration ([15]; day 0: 5 fish): 5
- Number of the survival after 4 days from administration ([15]; day 0: 5 fish): 5
- Number of the survival after 5 days from administration ([15]; day 0: 5 fish): 5
- Number of the survival after 6 days from administration ([15]; day 0: 5 fish): 5
- Number of the survival after 7 days from administration ([15]; day 0: 5 fish): 5
- survival and external appearance [16]: All eels survived without abnormality of their external appearance
- LC50 at 120 h [17]: 10.1 µg/mL (≈ 35.1 µM)
- Mortality ([18]; bathing conc. 4 μg/ml): 0%
- Number of the survival after 1 day ([18]; bathing conc. 4 μg/ml): 6
- Number of the survival after 2 days ([18]; bathing conc. 4 μg/ml): 6
- Number of the survival after 3 days ([18]; bathing conc. 4 μg/ml): 6
- Number of the survival after 4 days ([18]; bathing conc. 4 μg/ml): 6
- Number of the survival after 5 days ([18]; bathing conc. 4 μg/ml): 6
- Mortality ([18]; bathing conc. 8 μg/ml): 20%
- Number of the survival after 1 day ([18]; bathing conc. 8 μg/ml): 6
- Number of the survival after 2 days ([18]; bathing conc. 8 μg/ml): 6
- Number of the survival after 3 days ([18]; bathing conc. 8 μg/ml): 5
- Number of the survival after 4 days ([18]; bathing conc. 8 μg/ml): 5
- Number of the survival after 5 days ([18]; bathing conc. 8 μg/ml): 5
- Mortality ([18]; bathing conc. 16 μg/ml): 100%
- Number of the survival after 1 day ([18]; bathing conc. 16 μg/ml): 6
- Number of the survival after 2 days ([18]; bathing conc. 16 μg/ml): 6
- Number of the survival after 3 days ([18]; bathing conc. 16 μg/ml): 1
- Number of the survival after 4 days ([18]; bathing conc. 16 μg/ml): 0
- eels survived [19]: 80%
- rate of survival [20]: 100%
